Biological target: T1, recombinant human mPGES-1 (Homo sapiens, UniProt O14684)
T1 sequence (O14684 1-152): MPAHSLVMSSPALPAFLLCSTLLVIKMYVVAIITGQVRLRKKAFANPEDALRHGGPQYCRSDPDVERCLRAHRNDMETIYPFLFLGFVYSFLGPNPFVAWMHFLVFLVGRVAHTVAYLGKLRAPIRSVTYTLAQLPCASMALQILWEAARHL
Experiment: Assay A: mPGES-1 enzyme assay (HTRF detection of PGE2)
Assay type: biochemical
Conditions: biological assay A (compounds 1-41, 54, 55, 62, 73); PGE2 formation from PGH2, HTRF; read-out: mPGES-1 inhibitory effect IC50
Excerpt: Assay A: mPGES-1 Enzyme Assay
The basis of the assay used is to measure the inhibition of microsomal prostaglandin E2 synthase-1 (mPGES-1) dependent prostaglandin (PG) E2 formation from PGH2 by different compounds. Thus, the formation of PGE2 is used as signal and a lowering of this signal can be interpreted as inhibition of mPGES-1. Similar assays to measure inhibition of mPGES-1 have previously been described in the literature.
• Glutathione (Sigma, G-4251) • Freeze culture in Rosetta E coli expression strain. • LB growth media with Ampillicillin (Amp) final concentration in culture 50 μg/mL • Chloroamphenicol stock 34 mg/mL (chloro) final concentration in culture 34 μg/mL • Sterile growth flasks for 500 mL-1 liter cultures • 0.1 M KPi buffer pH 7.4 • 9.25% HCl • PGH2 (0.25 mM) • Fe (II) Cl2 tetrahydrate, 99% (Sigma, 220229) • 384-well plate with compounds • 96-well plate, polypropylene (Thermo fast 96 skirted VWR) • 384-well plate polypropylene PCR plate (Greiner 785201) • Greiner 384-well plate pp (In vitro cat. no. 781280) • Adhesive sealing film for 96-well plates (Sigma-Aldrich) • Aluminium foil (PCR foil, 310-0030-127-471 from Labora) • PBS (GIBCO 14040) • Prostaglandin E2 Assay (Cisbio, cat. no. 62P2APEC) • Biomek FX robot (Beckman Coulter) • Biomek NX robot (Beckman Coulter) • Multidrop; micro or combi (ThermoLabsystems) • Plate reader: Safire2 (Tecan)
Microsomes from Rosetta E. coli bacteria expressing recombinant human mPGES-1 can be derived as described below:
Inoculate 5 mL LB with Amp and Chloro with bacteria from freeze culture. Incubate over night at 37° C. with 200 rpm. Thereafter, inoculate 500-800 mL LB containing Amp and Chloro with the 5 mL on culture and grow to OD640 of 0.6-0.8. Chill the culture to +4° C. before induction. Induce the culture with IPTG at a final concentration of 400 μM. Express the protein at room temp 18-23° C. with 200 rpm shaking over night.
The following steps can be performed on the following day: • 1. Spin down the cells in 250 mL centrifuge flasks for 15 min at 7000 rpm • 2. Dissolve the pellet from 250 mL culture in 12.5 mL homogenization buffer • 3. Disintegrate the cells by sonication, 4×10 seconds at 35% amplitude • 4. Add 2.5 mL MgCl2 (100 mM) and DNase 12.5 μL (0.8 mg/mL) and incubate on ice for 30 min • 5. Spin down the bacteria debris and save the supernatant, 7000 rpm for 15 min • 6. Isolate the protein containing membranes in the supernatant by ultracentrifugation 45000×g for 1 hour. • 7. Discard the supernatant and dissolve the pellet in 20 mM KPi buffer and aliquot the enzyme and store aliquots at −80° C.
Before each experiment is performed an aliquot of the enzyme is thawed and it can then be dissolved in 0.1 M KPi pH 7.4 buffer containing 2.5 mM GSH. 50 μL of this enzyme solution is subsequently dispensed in a 384-well plate at room temperature. 0.5 μL of the inhibitor dissolved in DMSO is thereafter added to each well and incubated for 25 minutes at room temperature. Subsequently, 2 μL of PGH2 dissolved in an appropriate solvent is added to each well and after one minute at room temperature, the acidified stop solution containing FeCl2 is added. 4 μL of the total volume is transferred to a separate plate and diluted 750-fold in two separate steps before quantification of PGE2.
In order to quantitate the amount of PGE2 that has been formed, a homogenous time resolved fluorescent (HTRF) detection of PGE2 can be performed by the use of a commercially available kit from CisBio essentially according to the manufacturer's protocol. […]

| IC50 [nM] | Compound |
| --- | --- |
| 3 | CC(C)(C)C(=O)NCc1ccc(Cl)c(C(=O)Nc2ccc(OCC(F)(F)F)c(C(=O)NCC3CC3)c2)c1 [Example 41] |
| 9 | CC(C)(C)C(=O)NCc1ccc(Cl)c(C(=O)Nc2cc(F)c(F)c(C(=O)Nc3ccc(Br)cc3)c2)c1 [Example 54, N-[3,4-Difluoro-5-(4-bromophenyl)aminocarbonyl-phenyl]-2-chloro-5-(tert-butylcarbonylamino)methyl-benzamide] |
| 59 | Cc1ccc(NC(=O)c2cc(CNC(=O)C(C)(C)C)ccc2Cl)cc1C(=O)Nc1ccc(Br)cc1 [Example 55, N-[4-Methyl-3-(4-bromophenyl)aminocarbonyl-phenyl]-2-chloro-5-(tert-butylcarbonylamino)methyl-benzamide] |
| 11 | CN(C)c1ccc(NC(=O)c2cc(CNC(=O)C(C)(C)C)ccc2Cl)cc1C(=O)N[C@H]1CC[C@H](C(F)(F)F)CC1 [Example 62, N-[4-(dimethylamino)-3-(trans-4-trifluoromethylcyclohexyl)aminocarbonyl-phenyl]-2-chloro-5-(tert-butylcarbonylamino)methyl-benzamide] |
| 7 | CC(C)(C(=O)NCc1ccc(Cl)c(C(=O)Nc2cnc(OCC(F)F)c(C(=O)Nc3ccc(Br)cc3)c2)c1)C(F)(F)F [Example 73, N-[2-(2,2-Difluoroethyl)oxy-3-(4-bromophenyl)aminocarbonyl-pyridin-5-yl]-2-chloro-5-[(2,2,2-trifluoro-1,1-dimethyl-ethyl)carbonylamino]methyl-benzamide] |
